Measured values as given in ChEMBL document CHEMBL5375956, “Discovery of Pyrazolo[1,5-a]pyrimidine Derivative as a Novel and Selective ALKBH5 Inhibitor for the Treatment of AML” (J Med Chem, 2023).

Tests used:
RNA demethylase ALKBH5 [1] = target: RNA demethylase ALKBH5 (Homo sapiens, UniProt Q6P6C2, R130A); assay: Binding affinity to NT-647-NHS fluorescent dye-labeled ALKBH5 R130A mutant (unknown origin) expressed in Escherichia coli BL21(DE3) using m6A-ssDNA as substrate assessed as dissociation constant incubated for 15 mins by MST assay
RNA demethylase ALKBH5 (Homo sapiens, UniProt Q6P6C2, R130A), sequence (Q6P6C2 2-394 R130A limits assumed): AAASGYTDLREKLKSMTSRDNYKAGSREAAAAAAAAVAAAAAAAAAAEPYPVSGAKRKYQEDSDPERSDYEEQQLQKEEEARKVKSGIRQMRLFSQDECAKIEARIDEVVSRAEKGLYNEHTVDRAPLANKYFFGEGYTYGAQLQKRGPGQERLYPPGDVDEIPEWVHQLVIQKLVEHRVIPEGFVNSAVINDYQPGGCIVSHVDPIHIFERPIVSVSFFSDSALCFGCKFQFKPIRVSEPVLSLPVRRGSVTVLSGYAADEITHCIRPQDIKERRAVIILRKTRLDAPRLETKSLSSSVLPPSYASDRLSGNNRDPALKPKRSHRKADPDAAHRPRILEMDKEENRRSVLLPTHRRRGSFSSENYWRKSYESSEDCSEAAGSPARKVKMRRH

RNA demethylase ALKBH5 [2] = target: RNA demethylase ALKBH5 (Homo sapiens, UniProt Q6P6C2); assay: Inhibition of ALKBH5 (66 to 292 residues)(unknown origin) expressed in Escherichia coli BL21(DE3) using 5'-ATTGTCA(m6A)CAGCAGA-FAM-3' as substrate incubated for 30 mins by FP assay
RNA demethylase ALKBH5 (Homo sapiens, UniProt Q6P6C2), sequence (Q6P6C2 whole entry, the tested form may be a part): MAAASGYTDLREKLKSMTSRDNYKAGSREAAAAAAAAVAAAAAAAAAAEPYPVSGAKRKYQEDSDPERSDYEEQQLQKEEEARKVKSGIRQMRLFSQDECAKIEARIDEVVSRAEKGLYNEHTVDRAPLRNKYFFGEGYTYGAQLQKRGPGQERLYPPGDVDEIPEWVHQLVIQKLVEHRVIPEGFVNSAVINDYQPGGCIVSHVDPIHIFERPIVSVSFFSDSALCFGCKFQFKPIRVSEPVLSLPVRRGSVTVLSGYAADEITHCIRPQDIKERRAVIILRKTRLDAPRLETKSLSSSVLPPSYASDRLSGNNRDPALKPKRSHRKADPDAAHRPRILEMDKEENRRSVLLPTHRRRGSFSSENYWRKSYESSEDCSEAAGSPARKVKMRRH

RNA demethylase ALKBH5 [3] = target: RNA demethylase ALKBH5 (Homo sapiens, UniProt Q6P6C2, Y139A); assay: Binding affinity to NT-647-NHS fluorescent dye-labeled ALKBH5 Y139A mutant (unknown origin) expressed in Escherichia coli BL21(DE3) using m6A-ssDNA as substrate assessed as dissociation constant incubated for 15 mins by MST assay
RNA demethylase ALKBH5 (Homo sapiens, UniProt Q6P6C2, Y139A), sequence (Q6P6C2 2-394 Y139A limits assumed): as the sequence (Q6P6C2 2-394 R130A limits assumed) above, with A129R, Y138A counted along it

Kd (RNA demethylase ALKBH5 [1]): 373 µM
IC50 (RNA demethylase ALKBH5 [2]): 2.97 µM
Kd (RNA demethylase ALKBH5 [3]): 290 µM
Compound: O=C(OCc1ccc(C(F)(F)F)cc1)c1ccc(-c2cc3ncc(C(=O)c4c(O)ccc([N+](=O)[O-])c4O)cn3n2)cc1
